Results on 15 compounds are retold here after PubChem BioAssay AID328 (DTP/NCI, 2004).

The subject of this assay is BDF1 mice, P388 leukemia ip, median survival T/C. Put plainly: NCI In Vivo Anticancer Drug Screen. Data for tumor model P388 Leukemia (intraperitoneal) in B6D2F1 (BDF1) mice. The following applies: endpoint: median survival time, higher = longer survival. The method, boiled down: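 Each value expresses how treatment altered survival: treated-mouse outcome over vehicle-mouse outcome, both groups bearing the transplanted tumour.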

Where [1] appears, read: dose: 100.0 mg/kg/injection, schedule: Q01DX009 (ip), vehicle: Klucel (hydroxypropylcellulose) (HPC).
Where [2] appears, read: dose: 200.0 mg/kg/injection, schedule: Q01DX009 (ip), vehicle: Klucel (hydroxypropylcellulose) (HPC).
Where [3] appears, read: dose: 400.0 mg/kg/injection, schedule: Q01DX009 (ip), vehicle: Klucel (hydroxypropylcellulose) (HPC).
Setting [4] is: dose: 12.5 mg/kg/injection, schedule: Q01DX009 (ip), vehicle: saline.
[5] abbreviates: dose: 12.5 mg/kg/injection, schedule: Q04DX003 (ip), vehicle: saline.
Setting [6] is: dose: 25.0 mg/kg/injection, schedule: Q04DX003 (ip), vehicle: saline.
The mark [7] stands for this setting: dose: 50.0 mg/kg/injection, schedule: Q04DX003 (ip), vehicle: saline.

Where “and” joins values, the source holds several entries; their conditions need not be identical. Identical values can stand only once. Inconclusive results and toxic doses are left out.

On to `O=C1c2ccccc2C(=O)C1(Cl)C(Cl)c1ccc([N+](=O)[O-])cc1` (centres undefined), for which the T/C runs as follows: under setting [1], 105 % of control; under setting [2], 90 % of control; under setting [3], 100 % of control.
As to `c1ccc(C[P+](c2ccccc2)(c2ccccc2)c2ccccc2)cc1`, the T/C is 104 % of control (dose: 3.13 mg/kg/injection, schedule: Q01DX009 (ip), vehicle: Klucel (hydroxypropylcellulose) (HPC)); 104 % of control (dose: 3.13 mg/kg/injection, schedule: Q04DX003 (ip), vehicle: Klucel (hydroxypropylcellulose) (HPC)); 118 % of control (dose: 6.25 mg/kg/injection, schedule: Q01DX009 (ip), vehicle: Klucel (hydroxypropylcellulose) (HPC)); 113 % of control (dose: 6.25 mg/kg/injection, schedule: Q04DX003 (ip), vehicle: Klucel (hydroxypropylcellulose) (HPC)); 118 % of control (dose: 12.5 mg/kg/injection, schedule: Q04DX003 (ip), vehicle: Klucel (hydroxypropylcellulose) (HPC)).
Take `C=C(COc1ccc(Cl)cc1)COc1ccc(Cl)cc1`: the T/C by setting is: (dose: 50.0 mg/kg/injection, schedule: Q01DX001 (ip), vehicle: other) 103 % of control; (dose: 50.0 mg/kg/injection, schedule: Q04DX003 (ip), vehicle: other) 100 % of control; (dose: 100.0 mg/kg/injection, schedule: Q01DX001 (ip), vehicle: other) 100 % of control; (dose: 100.0 mg/kg/injection, schedule: Q04DX003 (ip), vehicle: other) 91 % of control; (dose: 200.0 mg/kg/injection, schedule: Q01DX001 (ip), vehicle: other) 94 % of control; (dose: 200.0 mg/kg/injection, schedule: Q04DX003 (ip), vehicle: other) 101 % of control. Moreover, the T/C was 102 % of control (dose: 400.0 mg/kg/injection, schedule: Q01DX001 (ip), vehicle: other) and 93 % of control (dose: 400.0 mg/kg/injection, schedule: Q04DX003 (ip), vehicle: other).
Consider `COc1ccc(CCNC(=O)/C=C\C(=O)O)cc1OC`, for which the T/C reads like this: (dose: 100.0 mg/kg/injection, schedule: Q01DX009 (ip), vehicle: saline with Tween-80) 95 % of control; (dose: 200.0 mg/kg/injection, schedule: Q01DX009 (ip), vehicle: saline with Tween-80) 95 % of control; (dose: 400.0 mg/kg/injection, schedule: Q01DX009 (ip), vehicle: saline with Tween-80) 100 % of control.
Turning to `Clc1ccc2c(c1)N(CCCN1CCCC13CCCCC3)c1ccccc1S2`, the T/C is 87 % of control (dose: 1.56 mg/kg/injection, schedule: Q01DX009 (ip), vehicle: saline); 91 % of control (dose: 1.56 mg/kg/injection, schedule: Q04DX003 (ip), vehicle: saline with Tween-80); 104 % of control (dose: 3.12 mg/kg/injection, schedule: Q01DX009 (ip), vehicle: saline); 91 % of control (dose: 3.12 mg/kg/injection, schedule: Q04DX003 (ip), vehicle: saline with Tween-80); 95 % of control (dose: 6.25 mg/kg/injection, schedule: Q01DX009 (ip), vehicle: saline); 91 % of control (dose: 6.25 mg/kg/injection, schedule: Q04DX003 (ip), vehicle: saline with Tween-80). The T/C under setting [4] is 95 % of control and the T/C (dose: 12.5 mg/kg/injection, schedule: Q04DX003 (ip), vehicle: saline with Tween-80) was 95 % of control.
Turning to `Cc1cc(/C=C/c2cc[n+](C)c3ccccc23)c(O)c2ncccc12`, the T/C (dose: 3.0 mg/kg/injection, schedule: Q01DX009 (ip), vehicle: saline) is 163 % of control; the T/C (dose: 6.0 mg/kg/injection, schedule: Q01DX009 (ip), vehicle: Klucel (hydroxypropylcellulose) (HPC)) was 155 % of control; the T/C (dose: 6.0 mg/kg/injection, schedule: Q01DX009 (ip), vehicle: saline) is 159 % of control; the T/C (dose: 12.0 mg/kg/injection, schedule: Q01DX009 (ip), vehicle: Klucel (hydroxypropylcellulose) (HPC)) is 165 % of control; the T/C (dose: 12.0 mg/kg/injection, schedule: Q01DX009 (ip), vehicle: saline) is 159 % of control; the T/C (dose: 24.0 mg/kg/injection, schedule: Q01DX009 (ip), vehicle: saline) was 168 % of control.
For the compound `COc1ccc2c3c(ccc2c1)C1=C(C(=O)O)CC(=O)C1(C)CC3` (centres undefined), the T/C by setting is: (dose: 100.0 mg/kg/injection, schedule: Q04DX003 (sc), vehicle: steriod suspending solution) 108 % of control; (dose: 200.0 mg/kg/injection, schedule: Q04DX003 (sc), vehicle: steriod suspending solution) 100 % of control; (dose: 400.0 mg/kg/injection, schedule: Q04DX003 (sc), vehicle: steriod suspending solution) 95 % of control.
Take `CCOC(=O)C(C(=O)OCC)C(=O)c1cc(-c2ccc(Cl)c(Cl)c2)nc2c(Cl)cc(Cl)cc12`: the T/C reads like this: (dose: 50.0 mg/kg/injection, schedule: Q01DX009 (ip), vehicle: Klucel (hydroxypropylcellulose) (HPC)) 100 % of control; under setting [2], 91 % of control.
Take `C[C@@H]1C[C@H]2[C@@H]3CCC4=CC(=O)C=C[C@]4(C)[C@@]3(F)[C@@H](O)C[C@]2(C)[C@@]1(O)C(=O)CO`: the T/C is, setting by setting: (dose: 6.25 mg/kg/injection, schedule: Q04DX003 (ip), vehicle: saline) 104 % of control; under setting [5], 109 % of control; (dose: 16.5 mg/kg/injection, schedule: Q04DX003 (ip), vehicle: saline) 112 % of control and 122 % of control; (dose: 25.0 mg/kg/injection, schedule: Q04DX003 (ip), vehicle: saline sonified) 110 % of control; under setting [6], 100 % of control and 113 % of control; (dose: 37.5 mg/kg/injection, schedule: Q04DX003 (ip), vehicle: saline) 109 % of control and 112 % of control. Moreover, the T/C is, setting by setting: (dose: 50.0 mg/kg/injection, schedule: Q04DX003 (ip), vehicle: saline sonified) 110 % of control; under setting [7], 90 % of control; (dose: 55.0 mg/kg/injection, schedule: Q04DX003 (ip), vehicle: saline) 110 % of control; (dose: 85.0 mg/kg/injection, schedule: Q04DX003 (ip), vehicle: saline) 119 % of control; (dose: 100.0 mg/kg/injection, schedule: Q04DX003 (ip), vehicle: saline sonified) 100 % of control.
For the compound `COc1cc2c3c(c1)C(O)CC[N+]3(C)CCC2` (centres undefined), the T/C under setting [4] is 100 % of control; the T/C under setting [5] was 109 % of control; the T/C (dose: 25.0 mg/kg/injection, schedule: Q01DX009 (ip), vehicle: saline) is 110 % of control; the T/C under setting [6] was 109 % of control; the T/C (dose: 50.0 mg/kg/injection, schedule: Q01DX009 (ip), vehicle: saline) is 100 % of control; the T/C under setting [7] is 109 % of control.
Turning to `CCC[CH2][Sn]([I])([CH2]I)[CH2]CCC`, the T/C runs as follows: (dose: 1.56 mg/kg/injection, schedule: Q01DX009 (ip), vehicle: saline with Tween-80) 102 % of control; (dose: 3.12 mg/kg/injection, schedule: Q01DX009 (ip), vehicle: saline with Tween-80) 106 % of control; (dose: 6.25 mg/kg/injection, schedule: Q01DX009 (ip), vehicle: saline with Tween-80) 123 % of control.
Take `COC(=O)C1OC(C)(C)OC1C(=O)OC` (centres undefined): the T/C by setting is: (dose: 100.0 mg/kg/injection, schedule: Q04DX002 (ip), vehicle: saline with Tween-80) 90 % of control; (dose: 200.0 mg/kg/injection, schedule: Q04DX002 (ip), vehicle: saline with Tween-80) 97 % of control; (dose: 400.0 mg/kg/injection, schedule: Q04DX002 (ip), vehicle: saline with Tween-80) 90 % of control.
`FC(F)(F)c1nnn[n-]1.[Au+].c1ccc([PH+](c2ccccc2)c2ccccc2)cc1`: the T/C runs as follows: (dose: 25.0 mg/kg/injection, schedule: Q01DX001 (ip), vehicle: saline with Tween-80) 100 % of control; (dose: 50.0 mg/kg/injection, schedule: Q01DX001 (ip), vehicle: saline with Tween-80) 102 % of control.
Turning to `Cc1nn(C)c2ccc([N+](=O)[O-])cc12`, the T/C by setting is: under setting [1], 118 % of control; under setting [2], 104 % of control; under setting [3], 122 % of control.
For the compound `O=C(CCBr)N1CCN(C(=O)CCBr)CC1`, the T/C was 109 % of control (dose: 10.0 mg/kg/injection, schedule: Q01DX010 (ip), vehicle: saline); 122 % of control (dose: 20.0 mg/kg/injection, schedule: Q01DX010 (ip), vehicle: saline); 181 % of control (dose: 40.0 mg/kg/injection, schedule: Q01DX010 (ip), vehicle: saline).
